Ki data for 27 compounds are collected here from patent US10196390B2, “TYK2 inhibitors and uses thereof” (Nimbus Lakshmi, Inc., priority 2014, dated 2019).

The structures appear in SMILES notation. Where only a bound is given, the exact number is not on record here.

One assay deals with JAK2 (Homo sapiens (Human), UniProt O60674). Put plainly: JAK2 activity inhibition assay (radioactive kinase assay / Caliper assay). Format: biochemical. Conditions: read-out: JAK2 Ki. In short, it runs like this: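 Mobility-shift (Caliper) read-out of phosphorylated peptide substrate. Compound diluted in 25 mM HEPES pH 7.5, 0.01% Brij-35, 0.01% Triton, 0.5 mM EGTA; enzyme added, then peptide plus ATP in 10 mM MgCl2. Incubated 25 min at 28° C, stopped with EDTA buffer.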

For the next assay, the target named is TYK2 (Homo sapiens (Human), UniProt P29597). Put plainly: Tyk2 activity inhibition assay (radioactive kinase assay / Caliper assay). Format: biochemical. In short, it runs like this: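 Radiometric format: TYK2 with peptide substrate (20 μM) and 33P-ATP at 10 μM in HEPES pH 7.5, 1% DMSO, 120 min at room temp, P81 paper capture. Caliper mobility-shift format: TYK2 9.75 nM, peptide 30 at 3 uM, ATP 16 uM (also 1 mM), 25 min at 28° C.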
Sequence of TYK2 (P29597 whole entry): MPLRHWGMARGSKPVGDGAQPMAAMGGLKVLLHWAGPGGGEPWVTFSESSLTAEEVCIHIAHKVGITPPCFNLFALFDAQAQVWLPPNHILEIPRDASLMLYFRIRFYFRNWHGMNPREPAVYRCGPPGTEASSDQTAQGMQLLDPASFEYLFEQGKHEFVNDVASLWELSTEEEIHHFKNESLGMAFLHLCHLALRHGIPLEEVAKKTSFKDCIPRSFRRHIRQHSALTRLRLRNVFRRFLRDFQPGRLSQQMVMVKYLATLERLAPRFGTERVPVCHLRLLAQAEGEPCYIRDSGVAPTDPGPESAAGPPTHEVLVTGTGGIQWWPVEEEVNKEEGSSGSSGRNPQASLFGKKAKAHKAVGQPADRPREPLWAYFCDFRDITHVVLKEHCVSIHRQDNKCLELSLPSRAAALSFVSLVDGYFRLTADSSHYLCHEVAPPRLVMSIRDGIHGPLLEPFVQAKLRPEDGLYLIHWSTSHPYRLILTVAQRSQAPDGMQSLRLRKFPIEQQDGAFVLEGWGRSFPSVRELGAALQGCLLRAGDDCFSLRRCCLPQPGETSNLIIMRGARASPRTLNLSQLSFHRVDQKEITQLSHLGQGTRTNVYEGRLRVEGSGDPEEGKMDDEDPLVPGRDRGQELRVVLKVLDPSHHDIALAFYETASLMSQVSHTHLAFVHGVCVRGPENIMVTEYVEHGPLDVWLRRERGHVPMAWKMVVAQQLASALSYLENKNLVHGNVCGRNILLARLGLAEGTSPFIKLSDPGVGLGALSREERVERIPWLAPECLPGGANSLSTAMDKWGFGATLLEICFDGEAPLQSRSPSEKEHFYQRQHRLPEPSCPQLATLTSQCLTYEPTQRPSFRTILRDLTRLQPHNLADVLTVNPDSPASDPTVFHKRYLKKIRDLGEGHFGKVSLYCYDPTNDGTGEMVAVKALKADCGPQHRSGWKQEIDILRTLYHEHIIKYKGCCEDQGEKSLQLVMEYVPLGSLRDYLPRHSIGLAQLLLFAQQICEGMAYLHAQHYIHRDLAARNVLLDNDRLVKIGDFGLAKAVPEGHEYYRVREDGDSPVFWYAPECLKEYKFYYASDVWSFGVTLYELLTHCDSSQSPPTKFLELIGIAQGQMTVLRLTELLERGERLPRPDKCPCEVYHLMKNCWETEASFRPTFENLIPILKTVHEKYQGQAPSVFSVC

Sequence of JAK2 (O60674 whole entry): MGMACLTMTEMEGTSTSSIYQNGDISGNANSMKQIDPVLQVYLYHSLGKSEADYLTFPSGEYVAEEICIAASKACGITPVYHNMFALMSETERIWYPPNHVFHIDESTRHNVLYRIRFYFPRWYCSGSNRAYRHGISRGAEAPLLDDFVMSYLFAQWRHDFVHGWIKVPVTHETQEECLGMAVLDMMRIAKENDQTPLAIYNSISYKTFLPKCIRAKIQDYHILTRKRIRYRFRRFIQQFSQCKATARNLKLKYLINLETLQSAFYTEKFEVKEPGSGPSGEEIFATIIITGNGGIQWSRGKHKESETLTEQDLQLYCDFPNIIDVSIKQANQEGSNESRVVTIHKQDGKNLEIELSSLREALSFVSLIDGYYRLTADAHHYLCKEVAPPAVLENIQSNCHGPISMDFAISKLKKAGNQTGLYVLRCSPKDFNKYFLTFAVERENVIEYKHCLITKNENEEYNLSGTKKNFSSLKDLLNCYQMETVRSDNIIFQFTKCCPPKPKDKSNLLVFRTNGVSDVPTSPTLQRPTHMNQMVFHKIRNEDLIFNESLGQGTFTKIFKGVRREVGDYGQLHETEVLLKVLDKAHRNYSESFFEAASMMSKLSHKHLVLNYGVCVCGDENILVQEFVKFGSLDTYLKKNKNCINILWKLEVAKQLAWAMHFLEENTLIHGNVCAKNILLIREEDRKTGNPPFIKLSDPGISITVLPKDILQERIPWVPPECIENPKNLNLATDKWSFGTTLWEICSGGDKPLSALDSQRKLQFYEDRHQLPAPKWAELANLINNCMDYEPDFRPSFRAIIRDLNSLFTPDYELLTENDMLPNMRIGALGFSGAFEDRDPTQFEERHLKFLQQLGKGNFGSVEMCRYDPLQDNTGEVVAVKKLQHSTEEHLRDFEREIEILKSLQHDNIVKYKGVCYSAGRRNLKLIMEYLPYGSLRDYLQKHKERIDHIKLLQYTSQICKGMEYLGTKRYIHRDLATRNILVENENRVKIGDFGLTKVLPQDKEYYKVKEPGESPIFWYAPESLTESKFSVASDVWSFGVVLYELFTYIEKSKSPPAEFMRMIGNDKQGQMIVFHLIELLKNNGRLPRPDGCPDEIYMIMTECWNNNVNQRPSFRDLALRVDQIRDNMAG

For the compound `O=C1NCc2nc(-c3c(F)cccc3F)nc(Nc3ccc(C4CCN(CCO)C4=O)cc3)c21` (stereo not drawn) [Compound I-149, 2-(2,6-difluorophenyl)-4-((4-(1-(2-hydroxyethyl)-2-oxopyrrolidin-3-yl)phenyl)amino)-6,7-dihydro-5H-pyrrolo[3,4-d]pyrimidin-5-one], the Ki was 100 to 1000 nM at JAK2 and less than 10 nM on TYK2.

With `CN1CC[C@@](C)(c2ccc(Nc3nc(-c4c(F)cccc4F)nc4c3C(=O)NC4)cc2)C1=O` [Compound I-151, (S)-2-(2,6-difluorophenyl)-4-((4-(1,3-dimethyl-2-oxopyrrolidin-3-yl)phenyl)amino)-6,7-dihydro-5H-pyrrolo[3,4-d]pyrimidin-5-one], the Ki was 100 to 1000 nM on JAK2 and less than 10 nM on TYK2.

Take `CN1CC[C@](C)(c2ccc(Nc3nc(-c4c(F)cccc4F)nc4c3C(=O)NC4)cc2)C1=O` [Compound I-152, (R)-2-(2,6-difluorophenyl)-4-((4-(1,3-dimethyl-2-oxopyrrolidin-3-yl)phenyl)amino)-6,7-dihydro-5H-pyrrolo[3,4-d]pyrimidin-5-one]: the Ki on JAK2 is 100 to 1000 nM; at TYK2 it was less than 10 nM.

With `O=C1NCc2nc(-c3c(F)cccc3F)nc(Nc3ccc(C4CCCNC4=O)cc3)c21` (stereo not drawn) [Compound I-153, 2-(2,6-difluorophenyl)-4-((4-(2-oxopiperidin-3-yl)phenyl)amino)-6,7-dihydro-5H-pyrrolo[3,4-d]pyrimidin-5-one], the Ki at JAK2 was 100 to 1000 nM; on TYK2 it was less than 10 nM.

As to `O=C1NCc2nc(-c3c(F)cccc3F)nc(Nc3ccc([C@@H]4CCCNC4=O)cc3)c21` [Compound I-155, (S)-2-(2,6-difluorophenyl)-4-((4-(2-oxopiperidin-3-yl)phenyl)-amino)-6,7-dihydro-5H-pyrrolo[3,4-d]pyrimidin-5-one], the Ki at JAK2 is 100 to 1000 nM; on TYK2 it was less than 10 nM.

Take `O=C(O)c1ccc(Nc2nc(-c3c(F)cccc3F)nc3c2C(=O)NC3)cc1` [Compound I-156, 4-((2-(2,6-difluorophenyl)-5-oxo-6,7-dihydro-5H-pyrrolo[3,4-d]pyrimidin-4-yl)amino)benzoicacid]: the Ki was 100 to 1000 nM on JAK2 and less than 10 nM on TYK2.

With `O=C1NCc2nc(-c3c(F)cccc3F)nc(Nc3ccc(C(=O)N4CC5(COC5)C4)cc3)c21` [Compound I-157, 4-((4-(2-oxa-6-azaspiro[3.3]heptane-6-carbonyl)phenyl)amino)-2-(2,6-difluorophenyl)-6,7-dihydro-5H-pyrrolo[3,4-d]pyrimidin-5-one], the Ki on JAK2 is 100 to 1000 nM; on TYK2 it was 10 to 100 nM.

Turning to `O=C1NCc2nc(-c3c(F)cccc3F)nc(Nc3ccc(C(=O)N4CCC4)cc3)c21` [Compound I-158, 4-((4-(azetidine-1-carbonyl)phenyl)amino)-2-(2,6-difluoro-phenyl)-6,7-dihydro-5H-pyrrolo[3,4-d]pyrimidin-5-one], the Ki at JAK2 is 100 to 1000 nM; at TYK2, 10 to 100 nM.

As to `N[C@@H]1CCCN(c2ccc(Nc3cc(-c4c(F)cccc4F)nc4c3C(=O)NC4)nc2)C1` [Compound I-159, (R)-4-((5-(3-aminopiperidin-1-yl)pyridin-2-yl)amino)-2-(2,6-difluorophenyl)-6,7-dihydro-5H-pyrrolo[3,4-b]pyridin-5-one], the Ki at JAK2 and on TYK2 was less than 10 nM each time.

Turning to `Cn1cc(Nc2nc(-c3c(F)cccc3F)nc3c2C(=O)NC3)cn1` [Compound I-160, 2-(2,6-difluorophenyl)-4-((1-methyl-1H-pyrazol-4-yl)amino)-6,7-dihydro-5H-pyrrolo[3,4-d]pyrimidin-5-one], the Ki is more than 1000 nM at JAK2 and 10 to 100 nM on TYK2.

Consider `O=C1NCc2nc(-c3c(F)cccc3F)cc(Nc3ccc(N4CCNCC4)cn3)c21` [Compound I-162, 2-(2,6-difluorophenyl)-4-((5-(piperazin-1-yl)pyridin-2-yl)amino)-6,7-dihydro-5H-pyrrolo[3,4-b]pyridin-5-one], for which the results for the Ki at JAK2 and at TYK2 were 10 to 100 nM and less than 10 nM, respectively.

`O=C(NCCO)c1ccc(Nc2cc(-c3c(F)cccc3F)nc3c2C(=O)NC3)nc1` [Compound I-164, 6-((2-(2,6-difluorophenyl)-5-oxo-6,7-dihydro-5H-pyrrolo[3,4-b]pyridin-4-yl)amino)-N-(2-hydroxyethyl)nicotinamide]: the results for the Ki at JAK2 and at TYK2 were 10 to 100 nM and less than 10 nM, respectively.

`O=C1NCc2nc(-c3c(F)cccc3F)nc(Nc3ccc(C(=O)N4CC(O)C4)cc3)c21` [Compound I-168, 2-(2,6-difluorophenyl)-4-((4-(3-hydroxyazetidine-1-carbo-nyl)phenyl)amino)-6,7-dihydro-5H-pyrrolo[3,4-d]pyrimidin-5-one]: the figures for the Ki at JAK2 and on TYK2 were 100 to 1000 nM and less than 10 nM, respectively.

In the case of `CC1(c2ccc(Nc3nc(-c4c(F)cccc4F)nc4c3C(=O)NC4)cc2)NC(=O)NC1=O` (stereo not drawn) [Compound I-172, 5-(4-((2-(2,6-difluorophenyl)-5-oxo-6,7-dihydro-5H-pyrrolo[3,4-d]pyrimidin-4-yl)amino)phenyl)-5-methylimidazolidine-2,4-dione], the Ki on JAK2 is 10 to 100 nM; on TYK2 it was less than 10 nM.

Regarding `C[C@@]1(c2ccc(Nc3nc(-c4c(F)cccc4F)nc4c3C(=O)NC4)cc2)NC(=O)NC1=O` [Compound I-173, (S)-5-(4-((2-(2,6-difluorophenyl)-5-oxo-6,7-dihydro-5H-pyrrolo[3,4-d]pyrimidin-4-yl)amino)phenyl)-5-methylimidazolidine-2,4-dione], the inhibition constant (Ki) at JAK2 is 10 to 100 nM; on TYK2, less than 10 nM.

In the case of `C[C@]1(c2ccc(Nc3nc(-c4c(F)cccc4F)nc4c3C(=O)NC4)cc2)NC(=O)NC1=O` [Compound I-174, (R)-5-(4-((2-(2,6-difluorophenyl)-5-oxo-6,7-dihydro-5H-pyrrolo[3,4-d]pyrimidin-4-yl)amino)phenyl)-5-methylimidazolidine-2,4-dione], the results for the Ki at JAK2 and at TYK2 were 10 to 100 nM and less than 10 nM, respectively.

As for `CCOC(=O)C(C)(C)c1ccc(Nc2nc(-c3c(F)cccc3F)nc3c2C(=O)NC3)cc1` [Compound I-178, ethyl 2-(4-((2-(2,6-difluorophenyl)-5-oxo-6,7-dihydro-5H-pyrrolo[3,4-d]pyrimidin-4-yl)amino)phenyl)-2-methylpropanoate], the figures for the Ki at JAK2 and on TYK2 were 100 to 1000 nM and less than 10 nM, respectively.

As for `O=C1NCc2nc(-c3c(F)cccc3F)nc(Nc3ccccc3)c21` [Compound I-179, 2-(2,6-difluorophenyl)-4-(phenylamino)-6,7-dihydro-5H-pyrrolo[3,4-d]pyrimidin-5-one], the Ki on JAK2 lay within 100 to 1000 nM; on TYK2, 10 to 100 nM.

For the compound `O=C1NCc2nc(-c3c(F)cccc3F)nc(Nc3ccc(Cl)cc3)c21` [Compound I-180, 4-((4-chlorophenyl)amino)-2-(2,6-difluorophenyl)-6,7-dihydro-5H-pyrrolo[3,4-d]pyrimidin-5-one], the Ki at JAK2 is more than 1000 nM; at TYK2 it was 10 to 100 nM.

In the case of `COc1ccc(Nc2nc(N3[C@H](C)CCC[C@@H]3C)nc3c2C(=O)NC3)cc1` [Compound I-183, 2-((2R,6S)-2,6-dimethylpiperidin-1-yl)-4-((4-methoxyphenyl)amino)-6,7-dihydro-5H-pyrrolo[3,4-d]pyrimidin-5-one], the results for the Ki at JAK2 and on TYK2 were 10 to 100 nM and less than 10 nM, respectively.

On to `COCCOc1ccc(Nc2nc(-c3c(F)cccc3F)nc3c2C(=O)NC3)cc1` [Compound I-185, 2-(2,6-difluorophenyl)-4-((4-(2-methoxy-ethoxy)-phenyl)amino)-6,7-dihydro-5H-pyrrolo[3,4-d]pyrimidin-5-one], for which the Ki at JAK2 is 100 to 1000 nM; at TYK2, less than 10 nM.

With `O=C(O)Cc1ccc(Nc2cc(-c3c(F)cccc3F)nc3c2C(=O)NC3)nc1` [Compound I-186, 2-(6-((2-(2,6-difluorophenyl)-5-oxo-6,7-dihydro-5H-pyrrolo[3,4-b]pyridin-4-yl)amino)pyridin-3-yl)acetic Acid], the Ki was 100 to 1000 nM at JAK2 and less than 10 nM on TYK2.

For the compound `CN1CC2(C1)CN(c1ccc(Nc3cc(-c4c(F)cccc4F)nc4c3C(=O)NC4)nc1)C2` [Compound I-187, 2-(2,6-difluorophenyl)-4-((5-(6-methyl-2,6-diazaspiro-[3.3]heptan-2-yl)pyridin-2-yl)amino)-6,7-dihydro-5-pyrrolo[3,4-b]pyridin-5-one], the Ki at JAK2 was 10 to 100 nM; on TYK2, less than 10 nM.

For `CC(C(=O)O)c1ccc(Nc2nc(-c3c(F)cccc3F)nc3c2C(=O)NC3)cc1` (stereo not drawn) [Compound I-189, 2-(4-((2-(2,6-difluorophenyl)-5-oxo-6,7-dihydro-5H-pyrrolo[3,4-d]pyrimidin-4-yl)amino)phenyl)propanoic Acid], the Ki on JAK2 is 100 to 1000 nM; on TYK2, less than 10 nM.

In the case of `O=C1NC(=O)C(c2ccc(Nc3nc(-c4c(F)cccc4F)nc4c3C(=O)NC4)cc2)S1` (stereo not drawn) [Compound I-192, 5-(4-((2-(2,6-difluorophenyl)-5-oxo-6,7-dihydro-5H-pyrrolo[3,4-d]pyrimidin-4-yl)amino)phenyl)thiazolidine-2,4-dione], the Ki on JAK2 is 100 to 1000 nM; on TYK2, less than 10 nM.

With `CN(CC(C)(C)O)C(=O)Cc1ccc(Nc2nc(-c3c(F)cccc3F)nc3c2C(=O)NC3)cc1` [Compound I-193, 2-(4-((2-(2,6-difluorophenyl)-5-oxo-6,7-dihydro-5H-pyrrolo[3,4-d]pyrimidin-4-yl)amino)phenyl)-N-(2-hydroxy-2-methylpropyl)-N-methylacetamide], the Ki on JAK2 was 100 to 1000 nM; at TYK2, less than 10 nM.

`O=C1NCc2nc(-c3c(F)cccc3F)nc(Nc3ccc(CC(=O)N4CCOC[C@@H]4C(=O)O)cc3)c21` [Compound I-194, (R)-4-(2-(4-((2-(2,6-difluorophenyl)-5-oxo-6,7-dihydro-5H-pyrrolo[3,4-d]pyrimidin-4-yl)amino)phenyl)acetyl)morpholine-3-carboxylic Acid]: the Ki lay in the range of 100 to 1000 nM at JAK2 and 10 to 100 nM on TYK2.

What is called Ki is a measure of affinity in units of concentration, obtained from inhibition or displacement.
